Measurements reported in publication PMC4704819, “Honey Bee Allatostatins Target Galanin/Somatostatin-Like Receptors and Modulate Learning: A Conserved Function?” (PLoS ONE, 2016).
“Also recorded” adds a separate entry of the source. Where a SMILES comes first, the peptide text is derived from it. Bridges are numbered along the chain shown (N, C = ends).

Experiments:
[1] = biological target: T1, Apime-ASTC-R (Apis mellifera, UniProt A0A7M7GNE5); assay: Intracellular cAMP reporter assay, HEK293 cells expressing Apime-ASTC-R; format: cell-based; settings: CRE-luciferase, IBMX, 10^-14 to 10^-3 M, Fig 5D-E, ASTCC effect at high concentrations (>10 μM)
T1 sequence (A0A7M7GNE5 1-423): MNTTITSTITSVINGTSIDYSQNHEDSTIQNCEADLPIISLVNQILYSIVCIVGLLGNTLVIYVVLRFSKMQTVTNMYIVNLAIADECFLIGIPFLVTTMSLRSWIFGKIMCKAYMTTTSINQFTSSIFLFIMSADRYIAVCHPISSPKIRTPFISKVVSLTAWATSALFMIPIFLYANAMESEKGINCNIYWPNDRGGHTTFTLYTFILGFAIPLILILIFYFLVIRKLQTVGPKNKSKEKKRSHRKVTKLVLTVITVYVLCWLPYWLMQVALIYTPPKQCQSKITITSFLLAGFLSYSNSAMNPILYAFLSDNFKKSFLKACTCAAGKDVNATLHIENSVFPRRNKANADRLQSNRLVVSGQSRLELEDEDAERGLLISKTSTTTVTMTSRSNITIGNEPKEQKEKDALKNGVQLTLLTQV
Method: (§1) For intracellular cAMP measurements, cells were bathed in trypsin EDTA and collected, then suspended in fresh DMEM. Transfections with pRK5-ApimeAstC-R, pRK5-ApimeAstA-R or empty pRK5 vector were carried out in 15 ml Falcon tubes. Transfection medium for HEK293 cells was prepared using the Lipofectamine LTX kit (Invitrogen) with 2.5 ml Opti-MEM® (Gibco), 12.5 μl Plus™ Reagent and 4 μg of ApimeASTC-R (or ApimeASTA-R, or empty) expression construct, and 2 μg of CRE(6x)-Luc plasmid. The luciferase ORF, downstream of six tandem repeats of a cyclic AMP responsive element (CRE), in front of a minimum collate promoter, was used as a reporter gene (this reporter plasmid has been used by others)
(§2) We followed a previousy published protocol: HEK293 cells in Dulbecco's Modified Eagles Medium nutrient mixture F12-Ham (DMEM/F12, Sigma–Aldrich) supplemented with 10% heat-inactivated fetal bovine serum (Gibco), 100 IU/ml penicillin, 100 μg/ml streptomycin (Gibco) were maintained in an incubator at 37°C with constant supply of 5% CO2, until they reached 60–80% confluence. Cells were then bathed in trypsin EDTA (Gibco) until rounded. The flask was then tapped to loosen the cells, which were subsequently washed off with 5 ml DMEM/F12. The cells were gently centrifuged at 800 rpm for 5 minutes and carefully suspended in fresh DMEM, which was divided in two for transfection with receptor constructs or empty vectors. After 5 min at room temperature, 30 μl LTX was added. After an incubation period of 30 min at room temperature, the DNA/LTX mix was added to the cells. The cells were then aliquoted (100 μl per well) into a clear bottom 96-well plate (Greiner bio-one #655090) and incubated overnight (37°C, 5% CO2).
(§3) Prior to measuring cAMP, the cell medium was removed by carefully inverting the 96-well plate on filter paper and quickly replaced with 100 μl of DMEM/F12 without phenol red (Invitrogen), but containing 200 μM 3-isobutyl-1-methylxanthine (IBMX, Sigma–Aldrich) to prevent cAMP breakdown, as well as drugs to be tested. In each experiment, some wells were used to measure basal levels of cAMP in the cells (negative control), while others were used to measure cAMP levels in cells exposed to 10 μM forskolin analogue (NKH-477, Sigma Aldrich, positive control). […] All cells were incubated at 37°C and 5% CO2 for 3–4 h to allow transcription of the reporter gene before 100 μl of freshly reconstituted Steadylite Plus™ substrate (PerkinElmer) was added to each well. The 96-well plate was then placed in the dark for 15 min before light emission resulting from luciferase enzymatic activity was recorded. Measurements lasting 0.2 s/well were taken every 55 s for 10 cycles using a FLUOstar Omega microplate reader (BMG Labtech). Results were analyzed by means of the Omega software packages and further processed by Excel and GraphPad Prism softwares. In order to facilitate comparisons across experiments, bioluminescence levels are expressed relative to those in mock-transfected cells (transfected with the vector devoid of the receptor sequence) untreated with NKH-477, which were arbitrarily set at 100.
(§4) To test this prediction, we expressed the two receptors separately in HEK293 cells together with the luciferase reporter gene, downstream of the cAMP response element, CRE, but without exogenous G proteins.

[2] = test system: mock-transfected HEK293 cells; assay: Intracellular cAMP reporter assay, mock-transfected HEK293 cells (empty vector); format: cell-based, human; settings: CRE-luciferase, IBMX, ASTCC Fig 5F, ASTA and ASTC data not shown
Method: as §1, §2, §3, §4

[3] = test system: honey bees (Apis mellifera); assay: Olfactory generalization test; format: in vivo; settings: 1μM, injected immediately after conditioning, test 1h later, N = 66, 75, 72; for response to nonanal vs control (GLM coefficient ± standard error): ASTA p = 0.38, ASTC p = 0.41, ASTCC p = 0.30; for response to 1-hexanol vs control (GLM coefficient ± standard error): ASTA p = 0.91, ASTC p = 0.96, ASTCC p = 0.56; for response to 1-nonanol (CS) vs control (GLM coefficient ± standard error): ASTA p = 0.96, ASTC p = 0.37, ASTCC p = 0.10
Method: The vehicle for allatostatins was a saline solution made of PBS containing the protease blocker, 1 mM PMSF (prepared from a 30mM stock solution in 100% ethanol, final concentration of ethanol 3.3%).
The allatostatins were injected into the head haemolymph after penetrating the median ocellus, either 1 hour before olfactory conditioning or sucrose responsiveness assessment, or immediately after olfactory conditioning. All injections were performed under a binocular microscope. A micromanipulator-controlled Hamilton syringe (Nanofil, equipped with a NF33BV2 needle, WPI) was used to inject approximately 200 nl of peptide solution. To make sure that the solution was properly injected, it was pushed out of the syringe so that a drop was visible and then the drop was put in contact with the haemolymph where it was quickly absorbed thanks to the respiratory movements of the bee. Any bee with excessive bleeding was discarded.
Bees that learned to respond to the conditioned stimulus (CS) at the end of conditioning were submitted to a generalization test 1h later. In addition to 1-nonanol (the CS), two novel odorants (nonanal and 1-hexanol) were presented: these were selected according to their respective high and low levels of perceptual similarity with 1-nonanol. All odorants were presented without reinforcement with sucrose. The order of odorant presentations varied across individuals, and the integrity of the reflexive response to sucrose was checked at the end of the test.
Functional data (receptor-mediated calcium, cAMP signals and binding) were plotted and regression curves were fitted using the GraphPad Prism software (San Diego, CA). The learning data were analyzed with generalized linear effects modeling (GLM) for binomial data using the R package lme4 [67]. Response levels recorded in the last conditioning trial were used to assess the effect of treatment on learning. For 1-hour memory and generalization tests, effects of allatostatin treatment were compared for each odor tested. Generalized linear mixed effects modeling (GLMM) was also used to analyze responsiveness to sucrose, with concentration and treatment as fixed factors and the bee identity and solution presented (either sucrose or water) as random factors. […] All statistics were generated in R [68].

Compound	effect on cAMP levels (bioluminescence), in words [1]	effect on cAMP levels (bioluminescence), in words ([1]; listed as ASTCC)	effect on cAMP levels (bioluminescence) in mock-transfected cells, in words [2]	effect on cAMP levels (bioluminescence) in mock-transfected cells, in words ([2]; listed as ASTCC)	response to nonanal vs control (GLM coefficient ± standard error) [3]	response to 1-hexanol vs control (GLM coefficient ± standard error) [3]	response to 1-nonanol (CS) vs control (GLM coefficient ± standard error) [3]	effect on cAMP levels (bioluminescence), in words ([1]; listed as ASTC)	effect on cAMP levels (bioluminescence) in mock-transfected cells, in words ([2]; listed as ASTC)
CC(C)[C@@H]1NC(=O)[C@H](C)NC(=O)[C@H](CC(N)=O)NC(=O)[C@H](Cc2ccccc2)NC(=O)[C@H](Cc2ccc(O)cc2)NC(=O)[C@@H](NC(=O)[C@H](CCCNC(=N)N)NC(=O)[C@H](Cc2c[nH]c3ccccc23)NC(=O)[C@H](Cc2ccc(O)cc2)NC(=O)[C@@H](NC(=O)[C@H](CCCNC(=N)N)NC(=O)CNC(=O)[C@H](CCCCN)NC(=O)[C@H](C)NC(=O)[C@H](CCC(N)=O)NC(=O)CN)C(C)C)CSSC[C@@H](C(=O)N[C@@H](Cc2ccccc2)C(=O)O)NC(=O)[C@H]([C@@H](C)O)NC1=O [Apime-ASTCC] (H-GQAKGRVYWRCYFNAVTCF-OH; disulfide 11-18; N-terminus assumed)	increased bioluminescence levels at high concentrations; also recorded: small increase in intracellular cAMP	increased cAMP levels in the cells slightly	dose-dependent response; also recorded: a similar response to this peptide was apparent also in mock-transfected cells	this occurred also in mock-transfected cells	0.37±0.36	0.20±0.34	0.71±0.44		
CC(C)[C@@H]1NC(=O)[C@H](C)NC(=O)[C@H](CC(N)=O)NC(=O)[C@H](Cc2ccccc2)NC(=O)[C@H](C)NC(=O)[C@@H](NC(=O)[C@H](CCC(N)=O)NC(=O)[C@H](CCCCN)NC(=O)[C@H](Cc2c[nH]c3ccccc23)NC(=O)[C@H](Cc2ccc(O)cc2)NC(=O)[C@@H](N)CO)CSSC[C@@H](C(=O)N[C@@H](Cc2ccccc2)C(N)=O)NC(=O)[C@H](CO)NC1=O [Apime-ASTC] (H-SYWKQCAFNAVSCF-NH2; disulfide 6-13; N-terminus assumed)	did not change the bioluminescence levels		No effect		0.29±0.36	0.01±0.34	0.35±0.40	failed to increase intracellular cAMP levels	failed to increase intracellular cAMP levels
